Source: patent US20150031714A1, “METHODS AND COMPOSITIONS FOR PREVENTION OF ALLERGIC REACTION” (Baylor College of Medicine, priority 2013, published 2015)

Legend:
Stat3 (pY705) = assay: Immunoblot assay of IL-6-mediated phosphorylation of Stat3 in HepG2 cells; type: cell-based; conditions: Homo sapiens; Table 4; HepG2, compound 60 min, IL-6 30 ng/ml 30 min; read-out: pStat3 IC50
Experimental: Cells were then stimulated with IL-6 (30 ng/ml) for 30 min. Protein extracts of cells were separated by SDS-PAGE, blotted and developed serially with antibodies to pStat3, total Stat3 and β-actin. Blots were stripped between each antibody probing. The bands intensities of immunoblot were quantified by densitometry. The value of each pStat3 band's intensity was divided by each corresponding value of total Stat3 band intensity and the results normalized to the DMSO-treated control value and plotted as a function of the log compound concentration. The best-fit curves were generated based on 4 Parameter Logistic Model/Dose Response One Site/XLfit 4.2, IDBS. Each panel is representative of 3 or more experiments.
Immunoblot assay. The human hepatocellular carcinoma cell line (HepG2) was grown in 6-well plates under standard conditions. Cells were pretreated with compounds (0, 1, 3, 10, 30, 100 and 300 uM) for 1 hour then stimulated under optimal conditions with either interferon gamma (IFN-γ; 30 ng/ml for 30 min) to activate Stat1 or interleukin-6 (IL-6; 30 ng/ml for 30 min) to activate Stat3 (30-31). Cultures were then harvested and proteins extracted using high-salt buffer, as described (Shao et al., 2006). […]
EXP IIC. […] Band intensities are quantified by densitometry. […]

Stat1 (pY701) = assay: Immunoblot assay of IFN-γ-mediated Stat1 phosphorylation in HepG2 cells; type: cell-based, human; conditions: 300 μM, 1 hour at 37° C.
Experimental: HepG2 cells were pretreated with DMSO alone or DMSO containing each of the compounds at a concentration of 300 μM for 60 min. Cells were then stimulated with IFN-γ (30 ng/ml) for 30 min. Protein extracts of cells were separated by SDS-PAGE and immunoblotted serially with antibodies to pStat1, total Stat1 and β-actin. Blots were stripped between each immunoblotting. The results shown are representative of 2 or more experiments.
Immunoblot assay. The human hepatocellular carcinoma cell line (HepG2) was grown in 6-well plates under standard conditions. Cells were pretreated with compounds (0, 1, 3, 10, 30, 100 and 300 uM) for 1 hour then stimulated under optimal conditions with either interferon gamma (IFN-γ; 30 ng/ml for 30 min) to activate Stat1 or interleukin-6 (IL-6; 30 ng/ml for 30 min) to activate Stat3 (30-31). Cultures were then harvested and proteins extracted using high-salt buffer, as described (Shao et al., 2006). Briefly, extracts were mixed with 2× sodium dodecyl sulfate (SDS) sample buffer (125 mmol/L Tris-HCL pH 6.8; 4% SDS; 20% glycerol; 10% 2-mercaptoethanol) at a 1:1 ratio and heated for 5 minutes at 100° C. Proteins (20 μg) were separated by 7.5% SDS-PAGE and transferred to polyvinylidene fluoride (PVDF) membrane (Millipore, Waltham, Mass.) and immunoblotted. Prestained molecular weight markers (Biorad, Hercules, Calif.) were included in each gel. Membranes were probed serially with antibody against Stat1 pY^701 or Stat3 pY^705 followed by antibody against Stat1 or Stat3 (Transduction labs, Lexington, Ky.) then antibody against β-actin (Abcam, Cambridge, Mass.). Membranes were stripped between antibody probing using Restore™ Western Blot Stripping Buffer (Thermo Fisher Scientific Inc., Waltham, Mass.) per the manufacturer's instructions. Horseradish peroxidase-conjugated goat-anti-mouse IgG was used as the secondary antibody (Invitrogen Carlsbad, Calif.) and the membranes were developed with enhanced chemiluminescence (ECL) detection system (Amersham Life Sciences Inc.; Arlington Heights, Ill.).
While Stat3 contributes to oncogenesis, in part, through inhibition of apoptosis, Stat1 is anti-oncogenic; it mediates the apoptotic effects of interferons and contributes to tumor surveillance (Kaplan et al., 1998; Ramana et al., 2000). Consequently, compounds that target Stat3 while sparing Stat1, leaving its anti-oncogenic functions unopposed, may result in a synergistic anti-tumor effect. […] Thus, five of the six exemplary compounds identified were selective and inhibited ligand-stimulated phosphorylation of Stat3 but not Stat1.
EXP IIC. Ligand-mediated pStat3 and pStat1 inhibition assays. […] Briefly, human hepatocellular carcinoma cells (HepG2) are grown in 6-well plates and pretreated with compounds (0, 0.1, 0.3, 1, 3, 10, 30, 100 μM) for 1 hour then stimulated under optimal conditions with either interleukin-6 (IL-6; 30 ng/ml for 30 min) to activate Stat3 or interferon gamma (IFN-γ; 30 ng/ml for 30 min) to activate Stat1. Cells are harvested and proteins extracted using high-salt buffer, mixed with 2× sodium dodecyl sulfate (SDS) sample buffer (125 mmol/L Tris-HCL pH 6.8; 4% SDS; 20% glycerol; 10%2-mercaptoethanol) at a 1:1 ratio then heated for 5 minutes at 100° C. Proteins (20 μg) are separated by 7.5% SDS-PAGE and transferred to polyvinylidene fluoride (PVDF) membrane (Millipore, Waltham, Mass.) and immunoblotted. Membranes are probed serially with antibody against Stat1 pY701 or Stat3 pY705 followed by antibody against Stat1 or Stat3 (Transduction labs, Lexington, Ky.) then antibody against β-actin (Abcam, Cambridge, Mass.). Membranes are stripped between antibody probings using Restore™ Western Blot Stripping Buffer (Thermo Fisher Scientific Inc., Waltham, Mass.) per the manufacturer's instructions. […]

breast cancer cell lines = assay: Apoptosis of breast cancer cell lines with constitutive Stat3 activation; type: cell-based

SMILES	IC50 (Stat3 (pY705))	Stat1 phosphorylation after IFN-γ stimulation (Stat1 (pY701))	induction of apoptosis of breast cancer cell lines (breast cancer cell lines)
CCOc1cc(C=C2C(=O)c3ccccc3C2=O)cc(Cl)c1OCc1cccc(C(=O)O)c1 [Cpd3-2, 3-({2-chloro-4-[(1,3-dioxo-1,3-dihydro-2H-inden-2-ylidene)methyl]-6-ethoxyphenoxy}methyl)benzoic acid]	144 µM	did not	–
O=C(O)c1ccc(C=CC(=O)c2ccc3c(c2)OCCO3)cc1 [Cpd3, 4-[3-(2,3-dihydro-1,4-benzodioxin-6-yl)-3-oxo-1-propen-1-yl]benzoic acid]	91 µM	did not	induced apoptosis preferentially
